According to patent US20240132498A1, “CRYSTALLINE FORMS OF 5-(3,4-DIFLUOROBENZYL)-8-((1R,4R)-4-METHYLCYCLOHEXYL)-6,9-DIOXO-2,5,8-TRIAZASPIRO[3.5]NONANE-2-CARBALDEHYDE” (Cytokinetics, Incorporated, priority 2022, published 2024):
In brackets after ≈: the same amount, converted by molar mass. Where two headings read alike, the source gives them in different places.

Experiments:
CYP2B6 = target: T1, CYP2B6 (Homo sapiens, UniProt P20813); test: Time-dependent inhibition of CYP450 enzymes in human liver microsomes: CYP2B6; format: in vitro ADME
T1 construct: from tissue; host or cells: pooled human liver microsomes
T1 sequence (P20813 1-491): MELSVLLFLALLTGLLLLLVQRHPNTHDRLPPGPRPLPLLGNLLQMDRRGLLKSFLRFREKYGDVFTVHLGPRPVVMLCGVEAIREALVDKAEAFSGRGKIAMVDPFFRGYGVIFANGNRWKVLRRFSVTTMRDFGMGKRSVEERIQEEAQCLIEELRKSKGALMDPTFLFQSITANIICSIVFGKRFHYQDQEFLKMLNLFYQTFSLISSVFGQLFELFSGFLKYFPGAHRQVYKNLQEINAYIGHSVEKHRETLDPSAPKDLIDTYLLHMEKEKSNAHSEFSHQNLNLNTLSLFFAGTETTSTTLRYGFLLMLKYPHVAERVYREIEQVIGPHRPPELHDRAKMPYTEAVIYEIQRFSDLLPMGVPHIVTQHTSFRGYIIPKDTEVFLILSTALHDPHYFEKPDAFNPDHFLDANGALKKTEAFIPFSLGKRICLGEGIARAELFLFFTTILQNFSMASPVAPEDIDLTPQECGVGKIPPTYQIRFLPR
Description: An assessment of the time-dependent Inhibitory Potential of the test compounds against Principal Human Cytochrome P450 Isozymes using Human Liver Microsomes was also carried out using standard methods (Grimm et al, Drug Metab. Dispos., Jul; 37(7):1355-70. doi: 10.1124/dmd.109.026716, 2009). Pooled human microsomes and selective CYP probe substrates were used for in vitro assessment of test compounds at 25 and 50 μM as time-dependent inhibitors of […] human hepatic cytochrome P450 isozymes (CYP1A2, 2B6, 2C9, 2C19, 2D6, and 3A4). LC-MS/MS was used to quantify metabolite formation. The inhibition of each P450 enzyme in human liver microsomes was measured as the percentage decrease in the activity of marker metabolite formation as measured by LC-MS/MS compared to non-inhibited controls (=100% activity) at time zero and after 30 minutes incubation. The occurrence of any time dependent inhibition was then expressed as the fold change in enzyme activity at time zero relative to the activity after 30 minutes incubation. The time dependent inhibition for the compound 5-(3,4-difluorobenzyl)-8-((1 r,4r)-4-methylcyclohexyl)-6,9-dioxo-2,5, 8-triazaspiro [3.5]nonane-2-carbaldehyde (Compound 1) against CYP1A2, […], CYP2C8, CYP2C9, CYP2C19, CYP2D6, CYP3A4-M and CYP3A4-T is shown in Table B-12.

[1] = Long-term storage stability of the solid (1, 3, 6 months); format: physicochemical
Description: For long-term (1 month or longer) stability experiments, solid material was placed into LDPE bags and sealed in a HDPE container at elevated storage conditions, unless otherwise stated.

[2] = Kinetic solubility of crystalline Form II in solvents; format: physicochemical; conditions: for solubility at 4 h: 25 °C, thermodynamic from solid; for Solubility: 25° C., 4 hours
Description: The solubility of crystalline Form II was analyzed with 15 types of common solvents. Sufficient amount of Form II was suspended in 0.5 mL solvent for a maximum anticipated concentration of Ca. =10-100 mg/ml of the free Form II. The resulting suspensions were then shaken in a platform shaker at 25° C./ 750 rpm for 4 hours. After equilibration, the appearance was recorded, and the pH of the saturated solution was measured for aqueous samples only. Samples were then centrifuged for 5 minutes at 13.4 krpm before dilution with MeCN except for the samples that were initially diluted in n-heptane, which were then diluted in 2-propanol rather than MeCN.
All diluted samples were then analyzed by HPLC. Samples were further diluted based on appearance and the maximum anticipated concentration […]. All diluted samples were injected at 10, 15 and 20 piL to obtain peak areas within the calibration curve as a diluted concentration of Ca. 0.1 mg/ml was trying to be achieved.
Quantitation was measured by HPLC with reference to a standard solution of approximately 0.15 mg/ml in MeCN. Different volumes of the standard diluted and undiluted sample solutions were injected. The solubility was calculated using the peak areas determined by integration of the peak found at the same retention time as the principal peak in the standard injection.

Compound: C[C@H]1CC[C@H](N2CC(=O)N(Cc3ccc(F)c(F)c3)C3(CN(C=O)C3)C2=O)CC1 [Compound 1, 5-(3,4-difluorobenzyl)-8-((1r,4r)-4-methylcyclohexyl)-6,9-dioxo-2,5,8-triazaspiro[3.5]nonane-2-carbaldehyde]
- (% Activity NADPH T0)/(% Activity NADPH T30) (CYP2B6; CYP2B6, 25 μM): 1.1
- (% Activity NADPH T0)/(% Activity NADPH T30) (CYP2B6; CYP2B6, 50 μM): 1.0
- activity at 30 min, 25 µM (CYP2B6; human, pooled human liver microsomes, CYP2B6, 25 μM, 30 minutes incubation, read-out: % Activity NADPH T30): 84%
- activity at 0 min, 25 µM (CYP2B6; human, pooled human liver microsomes, CYP2B6, 25 μM, time zero, read-out: % Activity NADPH T0): 95%
- activity at 30 min, 50 µM (CYP2B6; human, pooled human liver microsomes, CYP2B6, 50 μM, 30 minutes incubation, read-out: % Activity NADPH T30): 76%
- activity at 0 min, 50 µM (CYP2B6; human, pooled human liver microsomes, CYP2B6, 50 μM, time zero, read-out: % Activity NADPH T0): 76%

Compound: C[C@H]1CC[C@H](N2CC(=O)N(Cc3ccc(F)c(F)c3)C3(CN(C=O)C3)C2=O)CC1 [Form II, 5-(3,4-difluorobenzyl)-8-((1r,4r)-4-methylcyclohexyl)-6,9-dioxo-2,5,8-triazaspiro[3.5]nonane-2-carbaldehyde]
- Assay ([1]; 25° C./60% RH, 1 month): 99.0 % w/w
- Purity ([1]; 25° C./60% RH, 1 month): 99.1%
- Total Impurities ([1]; 25° C./60% RH, 1 month): 0.92%
- Water Content ([1]; 25° C./60% RH, 1 month): 0.02 % w/w
- Assay ([1]; 25° C./60% RH, 3 months): 98.8 % w/w
- Purity ([1]; 25° C./60% RH, 3 months): 99.1%
- Total Impurities ([1]; 25° C./60% RH, 3 months): 0.91%
- Water Content ([1]; 25° C./60% RH, 3 months): 0.01 % w/w
- Assay ([1]; 25° C./60% RH, 6 months): 99.2 % w/w
- Total Impurities ([1]; 25° C./60% RH, 6 months): 0.93%
- Water Content ([1]; 25° C./60% RH, 6 months): 0.09 % w/w
- XRPD ([1]; 25° C./60% RH, 6 months): Form II
- Assay ([1]; 40° C./75% RH, 1 month): 98.6 % w/w
- Purity ([1]; 40° C./75% RH, 1 month): 99.1%
- Total Impurities ([1]; 40° C./75% RH, 1 month): 0.92%
- Water Content ([1]; 40° C./75% RH, 1 month): 0.01 % w/w
- Assay ([1]; 40° C./75% RH, 3 months): 97.9 % w/w
- Purity ([1]; 40° C./75% RH, 3 months): 99.1%
- Total Impurities ([1]; 40° C./75% RH, 3 months): 0.9%
- Water Content ([1]; 40° C./75% RH, 3 months): 0.01 % w/w
- Assay ([1]; 40° C./75% RH, 6 months): 99.5 % w/w
- Total Impurities ([1]; 40° C./75% RH, 6 months): 0.91%
- Water Content ([1]; 40° C./75% RH, 6 months): 0.06 % w/w
- XRPD ([1]; 40° C./75% RH, 6 months): Form II
- Assay ([1]; Initial): 99.1 % w/w
- Purity ([1]; Initial): 99.1%
- Total Impurities ([1]; Initial): 0.91%
- Water Content ([1]; Initial): 0.02 % w/w
- XRPD ([1]; Initial): Form II
- solubility at 4 h ([2]; 2-BuOH, organic solvent or mixture, 2-BuOH, read-out: Average Solubility): 11 mg/mL (≈ 27.1 mM)
- solubility at 4 h ([2]; 2-BuOH, organic solvent or mixture, 2-BuOH, single replicate, read-out: Solubility): 11 mg/mL (≈ 27.1 mM)
- solubility at 4 h ([2]; 2-Me-THF, organic solvent or mixture, 2-Me-THF, read-out: Average Solubility): 24 mg/mL (≈ 59.2 mM)
- solubility at 4 h ([2]; 2-Me-THF, organic solvent or mixture, 2-Me-THF, single replicate, read-out: Solubility): 24 mg/mL (≈ 59.2 mM)
- solubility at 4 h ([2]; Acetone, organic solvent or mixture, Acetone, single replicate, read-out: Solubility): > 101 mg/mL
- solubility at 4 h ([2]; DI Water, pH 8.7, water, DI Water, final pH 8.7, read-out: Average Solubility): ~0.41 mg/mL (≈ 1.01 mM)
- solubility at 4 h ([2]; DI Water, pH 8.7, water, DI Water, final pH 8.7, single replicate, read-out: Solubility): 0.5 mg/mL (≈ 1.23 mM)
- Solubility ([2]; DI Water, final pH 8.7, single replicate): 0.31 mg/mL (≈ 0.765 mM)
- solubility at 4 h ([2]; DMSO, organic solvent or mixture, DMSO, read-out: Average Solubility): > 100 mg/mL
- solubility at 4 h ([2]; DMSO, organic solvent or mixture, DMSO, single replicate, read-out: Solubility): > 101 mg/mL
- Solubility ([2]; DMSO, single replicate): >101.2 mg/mL
- solubility at 4 h ([2]; EtOH, organic solvent or mixture, EtOH, read-out: Average Solubility): ~24 mg/mL (≈ 59.2 mM)
- solubility at 4 h ([2]; EtOH, organic solvent or mixture, EtOH, single replicate, read-out: Solubility): 25 mg/mL (≈ 61.7 mM)
- Solubility ([2]; EtOH, single replicate): 23 mg/mL (≈ 56.7 mM)
- solubility at 4 h ([2]; IPA, organic solvent or mixture, IPA, read-out: Average Solubility): 9.8 mg/mL (≈ 24.2 mM)
- solubility at 4 h ([2]; IPA, organic solvent or mixture, IPA, single replicate, read-out: Solubility): 9.8 mg/mL (≈ 24.2 mM)
- solubility at 4 h ([2]; Isopropyl acetate, organic solvent or mixture, Isopropyl acetate, single replicate, read-out: Solubility): 22 mg/mL (≈ 54.3 mM)
- solubility at 4 h ([2]; MIBK, organic solvent or mixture, MIBK, read-out: Average Solubility): 39 mg/mL (≈ 96.2 mM)
- solubility at 4 h ([2]; MIBK, organic solvent or mixture, MIBK, single replicate, read-out: Solubility): 39 mg/mL (≈ 96.2 mM)
- solubility at 4 h ([2]; MeCN, organic solvent or mixture, MeCN, read-out: Average Solubility): > 100 mg/mL
- solubility at 4 h ([2]; MeCN, organic solvent or mixture, MeCN, single replicate, read-out: Solubility): > 101 mg/mL
- Solubility ([2]; MeCN, single replicate): >100.6 mg/mL
- solubility at 4 h ([2]; MeOH, organic solvent or mixture, MeOH, read-out: Average Solubility): > 100 mg/mL
- solubility at 4 h ([2]; MeOH, organic solvent or mixture, MeOH, single replicate, read-out: Solubility): > 100 mg/mL
- Solubility ([2]; MeOH, single replicate): >100.6 mg/mL
- solubility at 4 h ([2]; THF, organic solvent or mixture, THF, read-out: Average Solubility): > 100 mg/mL
- solubility at 4 h ([2]; THF, organic solvent or mixture, THF, single replicate, read-out: Solubility): > 102 mg/mL
- Solubility ([2]; THF, single replicate): >101.2 mg/mL
- solubility at 4 h ([2]; Tert-Butylmethyl ether, organic solvent or mixture, Tert-Butylmethyl ether, read-out: Average Solubility): 1.12 mg/mL (≈ 2.76 mM)
- solubility at 4 h ([2]; Tert-Butylmethyl ether, organic solvent or mixture, Tert-Butylmethyl ether, single replicate, read-out: Solubility): 1.12 mg/mL (≈ 2.76 mM)
- solubility at 4 h ([2]; Toluene, organic solvent or mixture, Toluene, read-out: Average Solubility): 9.6 mg/mL (≈ 23.7 mM)
- solubility at 4 h ([2]; Toluene, organic solvent or mixture, Toluene, single replicate, read-out: Solubility): 9.5 mg/mL (≈ 23.4 mM)
- Solubility ([2]; Toluene, single replicate): 9.6 mg/mL (≈ 23.7 mM)
- solubility at 4 h ([2]; acetone, organic solvent or mixture, Acetone, read-out: Average Solubility): > 100 mg/mL
- solubility at 4 h ([2]; isopropyl acetate, organic solvent or mixture, Isopropyl acetate, read-out: Average Solubility): 22 mg/mL (≈ 54.3 mM)
